Common to all, as to format: cell-based, human
Assay [1] relates to primitive streak-like mesoderm population. Briefly: Paraxial mesoderm specification in monolayer culture, flow cytometry of cell surface markers. The following applies: day 4 to day 6 with Dorsomorphin, bFGF, SB431542; read on day 15. As for the experimental part:
FIG. 2. Characterization of paraxial mesoderm derived from hPSCs. Flow cytometric analysis of day 5 mesoderm treated with no additional factors (0 DM, no FGF), FGF, 4 μM DM, or 4 μM DM+FGF. Day 5 profiles depict KDR and PDGFRa expression, a double-positive population (gated) indicates mesoderm that has cardiac potential (20). Treatment with FGF results in less PDGFRa expression on day 5. (B) Expression of cell surface markers CD73, CD105, and PDGFR-beta on mesoderm populations on day 15 of differentiation. […] Experimental cell treatments during day 4 to day 6 include the combination of Dorsomorphin, bFGF, TGFbeta inhibitor (SB431542) in the presence or absence of the wnt pathway inhibitor IWP2. Flow cytometric analyses of CD73 and CD105, on day 15 mesoderm populations derived as indicated. (D) Gene expression analyses of day 15 mesoderm populations derived in indicated factors. Nkx2.5 is a cardiac transcription factor, Meox1 and Nkx3.2 are paraxial mesoderm and somite transcription factors. (E) Micrographs depicting 1 day old micromasses and 1 week old micromasses derived from day 15 mesoderm populations as indicated. (F) Flow cytometric analysis of cardiac troponin T (cTnT) expression in 1 week old micromasses derived from day 15 mesoderms as indicated. […] To generate chondrocytes, it is essential to first specify this PS population to a paraxial mesoderm fate. Previous studies have shown that mesoderm populations that express cell surface markers often found on mesenchymal stem cells, CD73 and CD105, have chondrogenic potential (Hwang, Kim et al. 2006). The expression of these two cell surface markers, as well as the expression of transcription factors Meox1 and Nkx3.2 combined with the lack of expression of Nkx2.5 to monitor the emergence of a paraxial mesoderm population was used. Previous experiments in the mouse ESC model system have shown the importance of inhibiting the BMP signaling pathway in the context of FGF signaling to prevent the emergence of cardiac mesoderm and promote the development of paraxial mesoderm (Craft, Ahmed et al. 2013). […] Very few cells in untreated mesoderm conditions expressed CD73 and CD105 (7.46%, FIG. 2B). […] The changes in expression of these surface markers were accompanied by the upregulation of paraxial genes Meox1 and Nkx3.2 (FIG. 2C). […] Thus, in some cell lines, the efficiency of paraxial mesoderm specification may be improved in the presence of a Wnt pathway antagonist immediately following the PS mesoderm induction phase.
(In general: A flow cytometer gives signals particle by particle.)

The subject of assay [2] is hPSC-derived articular chondrocytes. Briefly: Response of hPSC-derived articular-like cartilage to IL1β. The method, then:
FIG. 9. hPSC-derived articular-like cartilage respond appropriately to the pro-inflammatory molecule IL1β. (A) The experimental plan is depicted. Articular cartilage tissues were derived from hPSCs for 10 weeks in the presence of TGFβ3. Cartilage tissues (micromasses) were treated for two weeks (from week 10-12) with TGFβ3 or IL1β (10 ng/ml), as indicated. […] Values represent copy number mRNA relative to TBP (n=7). Error bars indicate s.e.m. (K) Histological analysis of 12-week tissues after treatments as indicated. Metachromatic toluidine blue staining indicates proteoglycans.
Access to an unlimited supply of hPSC-derived articular-like cartilage provides an opportunity to establish platforms to analyze the effects of pro-inflammatory cytokines such as […] (IL1beta), known to play a role in the early stages of osteoarthritis (OA). […] These enzymes cleave proteins found in cartilage extracellular matrix (ECM), such as collagens and aggrecans, which leads to the degradation of cartilage tissue. Significant upregulation of MMP13 and ADAMTS4 was observed only in the absence of TGFbeta3. ADAMTS5 was induced with or without TGFbeta3 present.

Assay [3] concerns hPSC-derived paraxial mesoderm. Put plainly: Chondrocyte specification in micromass culture with TGFB3 or BMP4 (histology, scatter flow cytometry, qRT-PCR, immunostaining). The following applies: for CILP2 expression / COL2A1 expression / PRG4 (lubricin) expression: 12 weeks of micromass culture, TGF agonist 10 ng/ml. The text has this: FIG. 4. TGFB3 and BMP4 specify chondrocytes and cartilage-like tissues with articular cartilage and growth plate cartilage phenotypes. (A) Micrographs of 5 week old micromasses derived with TGFB3 or BMP4, 20× magnification. (B) Tissue histology (stained with toluidine blue) of 13 week cartilage tissues derived with TGFB3 or BMP4. […] (C) Flow cytometric analysis of forward and side cell scatter parameters of 3 week and 5 week old micromasses. Side scatter indicates cell granularity and forward cell scatter indicates cell size. (D) Comparison of hPSC-derived micromass tissues to fetal primary chondrocyte derived micromass tissues and the developing human fetal femur cartilage. Articular cartilage regions appear to have smaller cells in size compared to growth plate like regions, which contain cells which appear enlarged (hypertrophic). Cartilage tissues in micromass as well as in the fetal femur stain uniformly with the toluidine blue stain (images are pink/purple in color and indicate the presence of cartilage proteins). The BMP4-treated micromass tissues contain a large number of enlarged cells which is similar to the bottom panel of the fetal cartilage which represents a growth plate cartilage. TGFB3 treated micromass cultures contain fewer, if any, enlarged chondrocytes, and appear similar to the upper panel of the fetal cartilage which is the site of articular cartilage. (E) Micrograph using GDF5 instead of BMP4 to generate hypertrophic chondrocytes. (F) Histological analyses of cartilage tissues derived from hiPSCs stained with Toluidine blue after 12 weeks. (G,H) Immunohistochemical staining of hESC-derived cartilage tissues for type II Collagen (G, 8 week tissues), and lubricin (H, 12 week tissues).
FIG. 5. Gene expression analyses of chondrocyte specification in the presence of TGFB3 or BMP4 during stages 3 and 4 of differentiation respectively. General chondrocyte genes Sox9 (A) and collagen 2 (B), hypertrophic genes collagen 10 (C), Runx2 (D), osterix (E) and alkaline phosphatase (F), articular cartilage associated genes lubricin (G) and cartilage intermediate layer protein 2 (CILP2) (H), interzone-related (joint progenitor) genes GDF5 (I), ERG (J) and Wnt9a (K). Expression is copy number relative to TBP (n=3 to 8 biological replicates) and is compared to primary fetal chondrocytes (aged 16 to 19 weeks, n=4), primary healthy adult articular chondrocytes (n=2), and growth plate-like chondrocytes isolated from the iliac crest of an adult (n=1). T15 Mesoderm indicates day 15 hESC-derived paraxial mesoderm (DM+FGF-treated). Error bars indicate s.e.m.
FIG. 8. TGFβ1, TGFβ2, and TGFβ3 generated articular chondrocytes from hPSC-derived paraxial mesoderm. COL2A1, lubricin, and CILP2 gene expression after 12 weeks of micromass culture in the presence of TGF agonists as indicated (10 ng/ml). Values represent copy number mRNA relative to TBP. Error bars indicate s.e.m.
Previous studies have shown that TGFBeta/BMP signaling is required to generate chondrocyte progenitors from paraxial mesoderm. […] Following 10 days of TGFb3 treatment (day 25 total), cultures could be switched to media containing BMP4 or maintained in TGFb3 (stage 4) in order to specify subsets of chondrocytes (articular/non-hypertrophic or growth plate/hypertrophic). To determine the chondrocyte potential of the day 15 mesoderm populations, the cells were plated at high cell density in a 20 microliter volume on tissue culture treated Petri dishes for an hour (micromass) and then the ‘spot’ was submerged/covered with media. In our initial studies, the cells were ‘spotted’ in a media containing 2% fetal bovine serum. However, this short serum exposure can be omitted with no effects on cartilage formation at later stages, making this protocol optionally serum-free. After 2 to 3 days, serum-free media containing TGFb3 is added to the culture to generate chondrocyte progenitors. […]

Setting [4] is: IL1beta in presence of TGFbeta3.
Where [5] appears, read: IL1β 10 ng/ml, week 10-12, absence of TGFb3.
Where [6] appears, read: IL1β 10 ng/ml, week 10-12, absence of TGFbeta3.

Data on five molecules can be found in patent publication US10736923B2, “Methods and compositions for generating chondrocyte lineage cells and/or cartilage like tissue” (UNIVERSITY HEALTH NETWORK, priority 2013, dated 2020).

On to `Cc1ccc2nc(NC(=O)CSc3nc4c(c(=O)n3-c3ccccc3)SCC4)sc2c1` [IWP2, N-(6-Methyl-2-benzothiazolyl)-2-[(3,4,6,7-tetrahydro-4-oxo-3-phenylthieno[3,2-d]pyrimidin-2-yl)thio]-acetamide, reference compound], for which the “CD73 and CD105 expression with Wnt inhibition” value in assay [1] is “improve the efficiency of CD73 and CD105 expression”.

Take IL1beta: pro-inflammatory cytokine: in assay [2] (setting [4]), the CILP2 expression result is “downregulated” and the “lubricin (PRG4) expression” value is “downregulated”. The ADAMTS5 expression result in assay [2] (IL1beta with TGFbeta3 present) is on record as “induced”. For the same molecule, in assay [2] (IL1β 10 ng/ml, week 10-12), the ACAN expression result was “reduction”, the COL2A1 expression result is listed as “reduction” and the “vascular endothelial growth factor (VEGF) expression” value is “increase”. Besides, the “proteoglycans in the tissue (toluidine blue)” value in assay [2] (IL1β 10 ng/ml, week 10-12, 12-week tissues) is on record as “noticeable loss”. Besides, in assay [2] (setting [5]), the ADAMTS4 expression entry was “upregulation”, the ADAMTS5 expression entry was “upregulation”, the MMP2 expression entry is reported as “upregulation” and the MMP13 expression entry is given as “upregulation”. Besides, in assay [2] (setting [6]), the CILP2 expression entry is reported as “downregulated” and the “lubricin (PRG4) expression” value is listed as “downregulated”.

As to TGFbeta1: TGFbeta agonist, in assay [3], the CILP2 expression entry is on record as “upregulated”, the COL2A1 expression result is given as “upregulated” and the “PRG4 (lubricin) expression” value is “upregulated”.

B1: TGFbeta2: TGFbeta agonist (protein, UniProt P61812 303-414, looked up)
Transforming growth factor …: ALDAAYCFRNVQDNCCLRPLYIDFKRDLGWKWIHEPKGYNANFCAGACPYLWSSDTQHSRVLSLYNTINPEASASPCCVSQDLEPLTILYYIGKTPKIEQLSNMIVKSCKCS
On to B1, for which, in assay [3], the CILP2 expression entry is “upregulated”, the COL2A1 expression result is reported as “upregulated” and the “PRG4 (lubricin) expression” value is listed as “upregulated”.

B2: GDF5: growth and differentiation factor 5, BMP4 agonist (protein, UniProt P43026 382-501, looked up)
Growth/differentiation factor …: APLATRQGKRPSKNLKARCSRKALHVNFKDMGWDDWIIAPLEYEAFHCEGLCEFPLRSHLEPTNHAVIQTLMNSMDPESTPPTCCVPTRLSPISILFIDSANNVVYKQYEDMVVESCGCR
Consider B2, for which the “tissue histology (toluidine blue), chondrocyte size” value in assay [3] (13 week old tissues, GDF5 instead of BMP4) is listed as “generates hypertrophic chondrocytes”.
